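96-well plates; 48 h exposure; 5 concentrations. Endpoints by linear interpolation between flanking doses. Not reached: highest tested concentration assigned. Here, GI50 denotes the concentration required for 50% inhibition of growth.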 Active and inactive are the calls of the source. No stated cut-off is given here; in the data, active = GI50 up to about 1.1 µM and inactive = higher.
Tests used:
Experiment in all cases: NCI anticancer screen, dose series, 48 h
OVCAR-5 = tested on: OVCAR-5
Malme-3M = tested on: Malme-3M
T47D = tested on: T47D
SNB-19 = tested on: SNB-19
HCC 2998 = tested on: HCC 2998
SK-MEL-28 = tested on: SK-MEL-28
PC-3 = tested on: PC-3
UACC-62 = tested on: UACC-62
786-0 = tested on: 786-0
DU-145 = tested on: DU-145
MOLT-4 = tested on: MOLT-4
SNB-75 = tested on: SNB-75
MCF7 = tested on: MCF7
HCT-116 = tested on: HCT-116
HT-29 = tested on: HT-29
NCI-H522 = tested on: NCI-H522
OVCAR-3 = tested on: OVCAR-3
SF-295 = tested on: SF-295
HOP-62 = tested on: HOP-62

Measured: GI50

Cn1c(=O)n2c(=O)n(C)c(=O)n2c1=O
inactive: OVCAR-5 > 100 µM | Malme-3M > 100 µM | T47D > 100 µM | SNB-19 > 100 µM | HCC 2998 > 100 µM | SK-MEL-28 > 100 µM | PC-3 > 100 µM | UACC-62 > 100 µM | 786-0 > 100 µM | DU-145 > 100 µM | MOLT-4 > 100 µM | SNB-75 > 100 µM | MCF7 > 100 µM | HCT-116 91.8 µM | HT-29 > 100 µM | NCI-H522 > 100 µM | OVCAR-3 > 100 µM

CCN1CC(C)Cn2c(=O)[nH]c3cc(Br)cc1c32 (stereo not given)
inactive: OVCAR-5 70.5 µM | Malme-3M 64.4 µM | SF-295 21.1 µM | T47D 18.5 µM | SNB-19 26.4 µM | HCC 2998 32.8 µM | HOP-62 30.5 µM | SK-MEL-28 35.7 µM | PC-3 30.9 µM | UACC-62 6.97 µM | 786-0 22.6 µM | DU-145 48.8 µM | MOLT-4 3.05 µM | SNB-75 11.4 µM | MCF7 17.3 µM | HCT-116 29.9 µM | HT-29 33.5 µM | OVCAR-3 20.3 µM

CC1CC(OP(=O)(OCc2ccccc2)OCc2ccccc2)[C@@H](OCc2ccccc2)C(OCc2ccccc2)C1OCc1ccccc1 (stereo not given in full)
inactive: OVCAR-5 > 100 µM | Malme-3M 57.5 µM | SF-295 75.5 µM | T47D 41.8 µM | SNB-19 46.8 µM | HCC 2998 > 100 µM | HOP-62 > 100 µM | SK-MEL-28 > 100 µM | PC-3 23.4 µM | UACC-62 > 100 µM | 786-0 > 100 µM | DU-145 > 100 µM | MOLT-4 11.6 µM | SNB-75 39.5 µM | MCF7 40.2 µM | HCT-116 17.9 µM | HT-29 67.9 µM | NCI-H522 81.8 µM

Cc1ccc(C(=O)Oc2ccc(/C=C3\CCC/C(=C\c4ccc(OC(=O)c5ccc(C)cc5)cc4)C3=O)cc2)cc1
inactive: OVCAR-5 > 100 µM | SF-295 > 100 µM | T47D > 100 µM | SNB-19 > 100 µM | HCC 2998 > 100 µM | HOP-62 > 100 µM | SK-MEL-28 > 100 µM | PC-3 > 100 µM | UACC-62 > 100 µM | 786-0 > 100 µM | DU-145 > 100 µM | MOLT-4 > 100 µM | SNB-75 79.8 µM | MCF7 > 100 µM | HCT-116 > 100 µM | HT-29 > 100 µM | NCI-H522 > 100 µM | OVCAR-3 > 100 µM

Fc1cccc(F)c1C1SCC2=Nc3ccccc3CN21 (stereo not given)
inactive: OVCAR-5 56 µM | SF-295 38.1 µM | T47D 49.7 µM | SNB-19 44.1 µM | HCC 2998 > 100 µM | HOP-62 20.8 µM | SK-MEL-28 > 100 µM | PC-3 30.8 µM | UACC-62 41 µM | 786-0 32.4 µM | DU-145 60 µM | MOLT-4 74 µM | SNB-75 18.7 µM | MCF7 35 µM | HCT-116 26.5 µM | OVCAR-3 19 µM

COC(=O)c1ccc(OCc2ccc3nc(-c4ccccc4)c(Cl)nc3c2)cc1
inactive: OVCAR-5 > 100 µM | SF-295 46 µM | T47D > 100 µM | SNB-19 92.5 µM | HCC 2998 > 100 µM | HOP-62 29.4 µM | SK-MEL-28 > 100 µM | PC-3 > 100 µM | UACC-62 > 100 µM | 786-0 21 µM | DU-145 > 100 µM | MOLT-4 91.6 µM | SNB-75 22.9 µM | MCF7 > 100 µM | HCT-116 83 µM | HT-29 > 100 µM | NCI-H522 11.8 µM | OVCAR-3 > 100 µM

Nc1nc(O)nc2sc3c(c12)CCCC3
inactive: OVCAR-5 > 100 µM | Malme-3M 37.8 µM | T47D 64.9 µM | SNB-19 55.8 µM | HCC 2998 82 µM | HOP-62 98.4 µM | SK-MEL-28 25.2 µM | PC-3 > 100 µM | UACC-62 32.1 µM | 786-0 > 100 µM | DU-145 > 100 µM | MOLT-4 99.3 µM | SNB-75 19.7 µM | MCF7 44.5 µM | HCT-116 57 µM | HT-29 68.2 µM | NCI-H522 46.6 µM

CN(C)CCNC(=O)Cn1ccc(=O)c2cc([N+](=O)[O-])ccc21
inactive: OVCAR-5 > 100 µM | Malme-3M > 100 µM | SF-295 > 100 µM | T47D > 100 µM | SNB-19 > 100 µM | HCC 2998 > 100 µM | HOP-62 > 100 µM | SK-MEL-28 > 100 µM | PC-3 > 100 µM | UACC-62 > 100 µM | 786-0 > 100 µM | DU-145 > 100 µM | MOLT-4 > 100 µM | MCF7 > 100 µM | HCT-116 > 100 µM | HT-29 > 100 µM | NCI-H522 > 100 µM | OVCAR-3 > 100 µM
